The source of these data is paper PMC10666275 (ACS Omega, 2023).

In experiment [1] the test system is P. aeruginosa. Nature of the experiment: Agar diffusion method, inhibition zones, P. aeruginosa. Format: cell-based, Pseudomonas aeruginosa. The following applies: 24 h; for zone of inhibition at 10000 µg/mL: Pseudomonas aeruginosa, read-out: IZ (inhibition zone); for IZ (inhibition zone): P. aeruginosa, agar well diffusion, 100 μL of 10 mg/mL in DMSO, 37 °C. In general terms: Agar diffusion results depend on both activity and mobility in agar.

The target in experiment [2] is T1, dihydrofolate reductase (DHFR) enzyme (Homo sapiens, UniProt P00374).
T1 sequence (P00374 1-187): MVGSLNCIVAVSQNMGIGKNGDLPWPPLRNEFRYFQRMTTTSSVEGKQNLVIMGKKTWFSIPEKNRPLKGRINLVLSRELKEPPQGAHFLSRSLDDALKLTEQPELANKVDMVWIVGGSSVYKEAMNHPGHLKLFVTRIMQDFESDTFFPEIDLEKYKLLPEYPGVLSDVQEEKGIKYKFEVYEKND
Kind of experiment: In vitro DHFR inhibition assay. Format: biochemical.

Experiment [3] has as its system MRSA. Nature of the experiment: Agar diffusion method, inhibition zones, MRSA. Format: cell-based, methicillin-resistant Staphylococcus aureus. The following applies: Staphylococcus aureus, 24 h, read-out: IZ (inhibition zone).
In experiment [4] the test system is P. aeruginosa. Kind of experiment: Resazurin-based 96-well plate microdilution MIC, P. aeruginosa. Format: cell-based. The settings on record: Pseudomonas aeruginosa, 24 h. A general note: The colour change of resazurin is a common sign of viable cells or microbes.
Experiment [5] concerns MRSA. Kind of experiment: Resazurin-based 96-well plate microdilution MIC, MRSA. Format: cell-based, methicillin-resistant Staphylococcus aureus. The following applies: Staphylococcus aureus, 24 h.
The subject of the next experiment is MRSA-induced keratitis. Nature of the experiment: MRSA-induced keratitis in rats. Format: in vivo, rat (Sprague–Dawley).

In brackets after ≈: the same amount, converted by molar mass. Entries after “also recorded” stand apart in the source; their conditions may differ.

As to `COc1cc(C(=O)/C=C\c2cn(-c3ccccc3)nc2-c2ccccc2)cc(OC)c1OC` [compound 4, (Z)-3-(1,3-Diphenyl-1H-pyrazol-4-yl)-1-(3,4,5-trimethoxyphenyl)prop-2-en-1-one], the values for the zone of inhibition at 10000 µg/mL in the experiment on P. aeruginosa [1] and in the experiment on MRSA [3] were 15 mm and 17 mm, respectively. Further, the midpoint of inhibition in experiment [2], the IC50, lay at 5 ± 0.23 µM.
With `COc1cc(-c2cc(-c3cn(-c4ccccc4)nc3-c3ccccc3)[nH]c(=O)n2)cc(OC)c1OC` [compound 5a, 6-(1,3-Diphenyl-1H-pyrazol-4-yl)-4-(3,4,5-trimethoxyphenyl)pyrimidine-2(1H)-one], the MIC (usually the smallest concentration in the dilution series that meets the test's criterion for growth inhibition) with P. aeruginosa [4] was 8320 µM (≈ 4000 µg/mL); against MRSA [5], 2080 µM (≈ 1000 µg/mL). For the same compound, the zone of inhibition at 10000 µg/mL in the experiment with P. aeruginosa [1] came to 22 mm; in the experiment on MRSA [3], 25 mm. Also, the IC50 – broadly, the concentration needed to halve the response being measured – in experiment [2] was found to be 4.2 ± 0.2 µM.
On to `COc1cc(-c2cc(-c3cn(-c4ccccc4)nc3-c3ccccc3)[nH]c(=S)n2)cc(OC)c1OC` [compound 5b, 6-(1,3-Diphenyl-1H-pyrazol-4-yl)-4-(3,4,5-trimethoxyphenyl)pyrimidine-2(1H)-thione], for which the MIC is 4030 µM (≈ 2000 µg/mL) in the experiment with P. aeruginosa [4] and 1010 µM (≈ 500 µg/mL) in the experiment with MRSA [5]. For the same compound, the results for the zone of inhibition at 10000 µg/mL in the experiment on P. aeruginosa [1] and with MRSA [3] were 20 mm and 23 mm, respectively. This compound displayed a concentration for half-maximal inhibition (IC50) in experiment [2] of 4.1 ± 0.19 µM.
For the compound `COc1cc(-c2cc(-c3cn(-c4ccccc4)nc3-c3ccccc3)[nH]c(=N)n2)cc(OC)c1OC` [compound 5c, 6-(1,3-Diphenyl-1H-pyrazol-4-yl)-4-(3,4,5-trimethoxyphenyl)pyrimidine-2(1H)-imine], the minimal inhibitory concentration (MIC) in the experiment with P. aeruginosa [4] is 2080 µM (≈ 1000 µg/mL); with MRSA [5] it was 521 µM (≈ 250 µg/mL). For the same compound, the zone of inhibition at 10000 µg/mL in the experiment with P. aeruginosa [1] turned out to be 24 mm; in the experiment on MRSA [3] it was 28 mm. The same compound yielded a 50% inhibitory concentration (IC50) in experiment [2] of 4 ± 0.18 µM. The “area % of corneal opacity (infection intensity)” value in the experiment on MRSA-induced keratitis (5c dispersion, versus MRSA group) is recorded as “significantly (P < 0.0001) reduced infection in rats; also recorded: significant reduction in the area % of corneal opacity”. Also, the inflammation score result in the experiment with MRSA-induced keratitis (H&E cornea, score 0-4, versus MRSA group) was “significant decrease in inflammation score”. The “corneal inflammation, histological evaluation (H&E)” value with MRSA-induced keratitis (MRSA/5c dispersion group compared to MRSA group) is listed as “mild to moderate inflammatory cell infiltration”.
As to `COc1cc(C2=NNC(c3cn(-c4ccccc4)nc3-c3ccccc3)C2)cc(OC)c1OC` (stereo not drawn) [compound 6a, 1′,3′-Diphenyl-5-(3,4,5-trimethoxyphenyl)-3,4-dihydro-1′H,2H-3,4′-bipyrazole], the zone of inhibition at 10000 µg/mL came to 6 mm in the experiment with P. aeruginosa [1] and 15 mm in the experiment on MRSA [3]. Further, the 50% inhibitory concentration (IC50) in experiment [2] was 5.56 ± 0.27 µM.
Turning to `COc1cc(C2=NN(c3ccccc3)C(c3cn(-c4ccccc4)nc3-c3ccccc3)C2)cc(OC)c1OC` (stereo not drawn) [compound 6b, 1′,2,3′-Triphenyl-5-(3,4,5-trimethoxyphenyl)-3,4-dihydro-1′H,2H-3,4′-bipyrazole], the “IZ (inhibition zone)” value in the experiment on P. aeruginosa [1] is “no detectable activity”. Also, the figures for the zone of inhibition at 10000 µg/mL with P. aeruginosa [1] and with MRSA [3] were 0 mm and 6 mm, respectively. This compound also had a concentration for half-maximal inhibition (IC50) in experiment [2] of 6.45 ± 0.31 µM.
For `COc1cc(C2=NN(C(C)=O)C(c3cn(-c4ccccc4)nc3-c3ccccc3)C2)cc(OC)c1OC` (stereo not drawn) [compound 7, 1-(1′,3′-Diphenyl-5-(3,4,5-trimethoxyphenyl)-3,4-dihydro-1′H,2H-[3,4′-bipyrazol]-2-yl)ethan-1-one] the same measures were “no detectable activity”, 0 mm, 11 mm and 6.7 ± 0.31 µM.
In the case of `C[C@H]1COc2c(N3CCN(C)CC3)c(F)cc3c(=O)c(C(=O)O)cn1c23` [levofloxacin, reference compound], the MIC with P. aeruginosa [4] was determined as 1380 µM (≈ 500 µg/mL); against MRSA [5], 346 µM (≈ 125 µg/mL). Also, the zone of inhibition at 10000 µg/mL with P. aeruginosa [1] worked out at 27 mm; with MRSA [3] it was 31 mm.
